Laboratory results: US8178506B2, “Oligomeric compounds and compositions for use in modulation of small non-coding RNAs” (Regulus Therapeutics Inc., priority 2003, dated 2012)
In the oligonucleotide strings, read from the 5' end, every base follows the letter of its sugar. An asterisk marks phosphorothioate; unmarked linkages are phosphodiester. Other units and linkages are bracketed, terminal groups are in braces. A string of capitals states the bases alone. e = 2'-O-(2-methoxyethyl) (MOE); [5mC] = 5-methylcytosine

Tests used:
Assay type in all cases: cell-based, human
aP2 = aP2 mRNA expression in adipocytes (real-time PCR); conditions: for aP2 mRNA: differentiating adipocytes transfected with oligomeric compound, Table 75; for AP2 mRNA: differentiating adipocytes, control = treatment with ISIS 342673
Procedure: (§1) Expression of the four hallmark genes, HSL, aP2, Glut4, and PPARγ, is also measured in adipocytes transfected with oligomeric compounds of the invention. Cells are lysed on day nine post-transfection and total RNA is harvested. The amount of total RNA in each sample is determined using a Ribogreen Assay (Invitrogen Life Technologies, Carlsbad, Calif.).
(§2) For assaying adipocyte differentiation, expression of the four hallmark genes, HSL, aP2, Glut4, and PPARγ, as well as triglyceride (TG) accumulation and leptin secretion were measured in adipocytes transfected with the uniform 2′-MOE phosphorothioate (PS) oligomeric compounds previously described. Cells are lysed on day nine post-transfection, in a guanadinium-containing buffer and total RNA is harvested. Real-time PCR is performed (Applied Biosystems, Prism 7700) on the total RNA using the following primer/probe sets for the adipocyte differentiation hallmark genes: (aP2): forward 5′-GGTGGTGGAATGCGTCATG-3′ (SEQ ID NO: 746), reverse 5′-[…]-3′ (SEQ ID NO: 747), probe 5′-FAM-[…]-TAMRA-3′ (SEQ ID NO: 748); (Glut4): forward 5′-GGCCTCCGCAGGTTCTG-3′ (SEQ ID NO: 749), reverse 5′-[…]-3′ (SEQ ID NO: 750), probe 5′-FAM-[…]-TAMRA-3′ (SEQ ID NO: 751); (HSL): forward 5′-ACCTGCGCACAATGACACA-3′ (SEQ ID NO: 752), reverse 5′-[…]-3′ (SEQ ID NO: 753), probe 5′-FAM-[…]-TAMRA-3′ (SEQ ID NO: 754); (PPAR-γ): forward 5′-[…]-3′ (SEQ ID NO: 755), reverse 5′-[…]-3′ (SEQ ID NO: 756), probe 5′-FAM-[…]-TAMRA-3′ (SEQ ID NO: 757). The amount of total RNA in each sample is determined using a Ribogreen Assay (Molecular Probes, Eugene, Oreg.), and expression levels of the adipocyte differentiation hallmark genes were normalized to total RNA.

PPARγ = PPARγ mRNA expression in adipocytes (real-time PCR)
Procedure: as §1, §2

adipocytes = assay: Triglyceride accumulation assay in adipocytes
Procedure: The triglyceride accumulation assay measures the synthesis of triglyceride by adipocytes. Triglyceride accumulation is measured using the Infinity™ Triglyceride reagent kit (Sigma-Aldrich, St. Louis, Mo.). On day nine post-transfection, cells are washed and lysed at room temperature, and the triglyceride assay reagent is added. Triglyceride accumulation is measured based on the amount of glycerol liberated from triglycerides by the enzyme lipoprotein lipase. Liberated glycerol is phosphorylated by glycerol kinase, and hydrogen peroxide is generated during the oxidation of glycerol-1-phosphate to dihydroxyacetone phosphate by glycerol phosphate oxidase. Horseradish peroxidase (HRP) uses H2O2 to oxidize 4-aminoantipyrine and 3,5 dichloro-2-hydroxybenzene sulfonate to produce a red-colored dye. Dye absorbance, which is proportional to the concentration of glycerol, is measured at 515 nm using an UV spectrophotometer. Glycerol concentration is calculated from a standard curve for each assay, and data are normalized to total cellular protein as determined by a Bradford assay (Bio-Rad Laboratories, Hercules, Calif.).
An increase in triglyceride content is another well-established marker for adipocyte differentiation. The triglyceride accumulation assay measures the synthesis of triglyceride by adipocytes. Triglyceride accumulation was measured using the Infinity™ Triglyceride reagent kit (Sigma-Aldrich, St. Louis, Mo.). Human white preadipocytes (Zen-Bio Inc., Research Triangle Park, N.C.) were grown in preadipocyte media (ZenBio Inc.). One day before transfection, 96-well plates were seeded with 3000 cells/well. Cells were transfected according to standard published procedures with 250 nM oligomeric compound in LIPOFECTIN™ (Invitrogen Corporation, Carlsbad, Calif.) (Monia et al., J. Biol. Chem. 1993 268(19):14514-22). Oligomeric compounds were tested in triplicate on each 96-well plate, and the effects of TNF-α, a positive drug control that inhibits adipocyte differentiation, were also measured in triplicate. Negative and transfectant-only controls may be measured up to six times per plate. After the cells have reached confluence (approximately three days), they were exposed to differentiation media (Zen-Bio, Inc.) containing a PPAR-γ agonist, IBMX, dexamethasone, and insulin for three days. Cells were then fed adipocyte media (Zen-Bio, Inc.), which was replaced at 2 to 3 day intervals. […] Triglyceride accumulation was measured based on the amount of glycerol liberated from triglycerides by the enzyme lipoprotein lipase. Liberated glycerol is phosphorylated by glycerol kinase, and hydrogen peroxide is generated during the oxidation of glycerol-1-phosphate to dihydroxyacetone phosphate by glycerol phosphate oxidase. Horseradish peroxidase (HRP) uses H2O2 to oxidize 4-aminoantipyrine and 3,5 dichloro-2-hydroxybenzene sulfonate to produce a red-colored dye. Dye absorbance, which is proportional to the concentration of glycerol, was measured at 515 nm using an UV spectrophotometer. Glycerol concentration was calculated from a standard curve for each assay, and data were normalized to total cellular protein as determined by a Bradford assay (Bio-Rad Laboratories, Hercules, Calif.). Results are expressed as a percent±standard deviation relative to transfectant-only control.

Glut4 = Glut4 mRNA expression in adipocytes (real-time PCR)
Procedure: as §1, §2

HSL = HSL mRNA expression in adipocytes (real-time PCR)
Procedure: as §1, §2

[1] = differentiating adipocytes transfected with oligomeric compound, Table 75
[2] = Table 17, differentiating adipocytes, control = treatment with ISIS 342673
[3] = Table 18, differentiating adipocytes, control = treatment with ISIS 342673

Row | Substance | aP2 mRNA (aP2) | PPAR gamma mRNA (PPARγ; [1]) | TG (triglyceride accumulation) (adipocytes; [1]) | GLUT4 mRNA (Glut4; [1]) | HSL mRNA (HSL; [1]) | AP2 mRNA (aP2; Table 17) | PPAR gamma mRNA (PPARγ; [2]) | TG (triglyceride accumulation) (adipocytes; [2]) | GLUT4 mRNA (Glut4; [2]) | HSL mRNA (HSL; [2]) | AP2 mRNA (aP2; Table 18) | PPAR gamma mRNA (PPARγ; [3]) | TG (triglyceride accumulation) (adipocytes; [3]) | GLUT4 mRNA (Glut4; [3]) | HSL mRNA (HSL; [3])
1 | 346692 (UAAACGGAACCACUAGUGACUUG; all 2'-MOE, all phosphorothioate, methylation of C and T or U not given here) [compound 346692] | 26 percentage of untreated control (UTC) | 28 percentage of untreated control (UTC) | 35 percentage of untreated control (UTC) | 11 percentage of untreated control (UTC) | 18 percentage of untreated control (UTC) |  |  |  |  |  |  |  |  |  | 
2 | 328126 (antisense e[5mC]*e[5mC]*eA*eA*eG*eT*eG*eT*eT*eA*eG*eA*eG*e[5mC]*eA*eA*eG*eA*eT*e[5mC]*eA) [compound 328126] | 120 percentage of untreated control (UTC) | 98 percentage of untreated control (UTC) | 108 percentage of untreated control (UTC) | 107 percentage of untreated control (UTC) | 135 percentage of untreated control (UTC) | 90.9 percentage of control | 75.0 percentage of control | 98.9 percentage of control | 100.7 percentage of control | 83.2 percentage of control |  |  |  |  | 
3 | 328107 (antisense e[5mC]*eT*eG*eT*eG*eA*e[5mC]*eT*eT*e[5mC]*eT*e[5mC]*eT*eA*eT*e[5mC]*eT*eG*e[5mC]*e[5mC]*eT) [compound 328107] | 68 percentage of untreated control (UTC) | 71 percentage of untreated control (UTC) | 51 percentage of untreated control (UTC) | 52 percentage of untreated control (UTC) | 55 percentage of untreated control (UTC) |  |  |  |  |  | 67.5 percentage of control | 79.3 percentage of control | 66.7 percentage of control | 72.5 percentage of control | 61.0 percentage of control
4 | 328113 (antisense e[5mC]*eA*eA*eA*eA*eA*eT*eT*eA*eT*e[5mC]*eA*eG*e[5mC]*e[5mC]*eA*eG*eT*eT*eT*eA) [compound 328113] | 87 percentage of untreated control (UTC) | 85 percentage of untreated control (UTC) | 74 percentage of untreated control (UTC) | 78 percentage of untreated control (UTC) | 83 percentage of untreated control (UTC) |  |  |  |  |  | 84.5 percentage of control | 93.8 percentage of control | 80.8 percentage of control | 99.9 percentage of control | 90.6 percentage of control
5 | 348117 (GAACCCACAAUCCCUGGCUUA; all 2'-MOE, all phosphorothioate, methylation of C and T or U not given here) [compound 348117] | 70 percentage of untreated control (UTC) | 65 percentage of untreated control (UTC) | 66 percentage of untreated control (UTC) | 73 percentage of untreated control (UTC) | 55 percentage of untreated control (UTC) |  |  |  |  |  |  |  |  |  | 
6 | 346909 (UCACCAAAACAUGGAAGCACUUA; all 2'-MOE, all phosphorothioate, methylation of C and T or U not given here) [compound 346909] | 68 percentage of untreated control (UTC) | 77 percentage of untreated control (UTC) | 66 percentage of untreated control (UTC) | 64 percentage of untreated control (UTC) | 64 percentage of untreated control (UTC) |  |  |  |  |  |  |  |  |  | 
7 | 328106 (antisense eA*eT*eT*eG*eA*eT*eG*e[5mC]*eG*e[5mC]*e[5mC]*eA*eT*eT*eT*eG*eG*e[5mC]*e[5mC]*eT*eA) [compound 328106] | 91 percentage of untreated control (UTC) | 81 percentage of untreated control (UTC) | 70 percentage of untreated control (UTC) | 79 percentage of untreated control (UTC) | 86 percentage of untreated control (UTC) |  |  |  |  |  | 88.8 percentage of control | 90.7 percentage of control | 90.5 percentage of control | 105.7 percentage of control | 94.9 percentage of control
8 | 348125 (GCUGGAUGCAAACCUGCAAAACU; anti-miR; all 2'-MOE, all phosphorothioate, methylation of C and T or U not given here) [compound 348125] | 67 percentage of untreated control (UTC) | 64 percentage of untreated control (UTC) | 79 percentage of untreated control (UTC) | 65 percentage of untreated control (UTC) | 64 percentage of untreated control (UTC) |  |  |  |  |  |  |  |  |  | 
9 | 341797 (antisense ACAAGUGCCUUCACUGCAGU; all 2'-MOE, all phosphorothioate, methylation of C and T or U not given here) [compound 341797] | 45 percentage of untreated control (UTC) | 50 percentage of untreated control (UTC) | 20 percentage of untreated control (UTC) | 17 percentage of untreated control (UTC) | 29 percentage of untreated control (UTC) |  |  |  |  |  |  |  |  |  | 
10 | 344615 (UCAACAAAAUCACUGAUGCUGGA; anti-miR; all 2'-MOE, all phosphorothioate, methylation of C and T or U not given here) [compound 344615] | 166 percentage of untreated control (UTC) | 144 percentage of untreated control (UTC) | 149 percentage of untreated control (UTC) | 145 percentage of untreated control (UTC) | 154 percentage of untreated control (UTC) |  |  |  |  |  |  |  |  |  | 
